Results on 17 molecules are retold here after patent US10544143B2, “4-azaindole compounds” (BRISTOL-MYERS SQUIBB COMPANY, priority 2017, dated 2020).

The target in one test is human TLR9 (Homo sapiens (Human), UniProt Q9NR96). Kind of test: TLR9 inhibition reporter assay (HEK-Blue SEAP).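 Note: SEAP driven by an IFN-β minimal promoter with NF-κB and AP-1 sites, read after 22 h, compounds dosed 0.05 nM–50 µM, inhibition scaled between agonist plus DMSO and reference-inhibitor wells.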 A general note: Reporter assays use an easily measured gene product as a stand-in for the process of interest.
human TLR9, sequence (Q9NR96 26-1032): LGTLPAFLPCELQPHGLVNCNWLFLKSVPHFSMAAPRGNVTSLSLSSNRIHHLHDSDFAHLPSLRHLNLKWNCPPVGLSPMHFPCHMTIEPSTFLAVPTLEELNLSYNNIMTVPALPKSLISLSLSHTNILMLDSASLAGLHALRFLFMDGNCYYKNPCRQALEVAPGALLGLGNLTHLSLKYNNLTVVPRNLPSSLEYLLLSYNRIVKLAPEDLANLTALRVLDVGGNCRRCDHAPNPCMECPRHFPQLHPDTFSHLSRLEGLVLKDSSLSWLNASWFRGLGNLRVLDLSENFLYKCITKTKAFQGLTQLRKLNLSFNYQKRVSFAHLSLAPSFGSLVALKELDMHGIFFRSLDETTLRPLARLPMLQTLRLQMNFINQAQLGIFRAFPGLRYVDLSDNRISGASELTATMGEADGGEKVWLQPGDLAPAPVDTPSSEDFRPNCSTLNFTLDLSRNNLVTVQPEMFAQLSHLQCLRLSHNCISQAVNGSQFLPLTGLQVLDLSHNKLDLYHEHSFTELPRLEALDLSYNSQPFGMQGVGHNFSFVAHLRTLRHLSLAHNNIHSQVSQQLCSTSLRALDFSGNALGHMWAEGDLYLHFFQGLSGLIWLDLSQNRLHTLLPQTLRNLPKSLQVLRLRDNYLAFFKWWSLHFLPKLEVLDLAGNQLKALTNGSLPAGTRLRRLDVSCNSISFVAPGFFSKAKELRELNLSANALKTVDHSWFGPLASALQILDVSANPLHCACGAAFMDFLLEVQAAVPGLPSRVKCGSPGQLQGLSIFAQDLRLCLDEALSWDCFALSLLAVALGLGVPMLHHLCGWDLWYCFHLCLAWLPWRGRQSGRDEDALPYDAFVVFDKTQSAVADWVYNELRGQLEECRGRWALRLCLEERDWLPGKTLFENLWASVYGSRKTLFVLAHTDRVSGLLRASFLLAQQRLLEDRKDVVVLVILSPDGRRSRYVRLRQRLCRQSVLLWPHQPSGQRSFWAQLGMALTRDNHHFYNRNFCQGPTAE
The target of the next test is human TLR8 (Homo sapiens (Human), UniProt Q9NR97). The test is described as follows: TLR8 inhibition reporter assay (HEK-Blue SEAP).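 Note: SEAP driven by IFN-β minimal promoter carrying NF-κB and AP-1 sites, compounds dosed 0.05 nM to 50 µM for 22 h, inhibition scaled between agonist-plus-DMSO and reference-inhibitor wells.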
human TLR8, sequence (Q9NR97 27-1041): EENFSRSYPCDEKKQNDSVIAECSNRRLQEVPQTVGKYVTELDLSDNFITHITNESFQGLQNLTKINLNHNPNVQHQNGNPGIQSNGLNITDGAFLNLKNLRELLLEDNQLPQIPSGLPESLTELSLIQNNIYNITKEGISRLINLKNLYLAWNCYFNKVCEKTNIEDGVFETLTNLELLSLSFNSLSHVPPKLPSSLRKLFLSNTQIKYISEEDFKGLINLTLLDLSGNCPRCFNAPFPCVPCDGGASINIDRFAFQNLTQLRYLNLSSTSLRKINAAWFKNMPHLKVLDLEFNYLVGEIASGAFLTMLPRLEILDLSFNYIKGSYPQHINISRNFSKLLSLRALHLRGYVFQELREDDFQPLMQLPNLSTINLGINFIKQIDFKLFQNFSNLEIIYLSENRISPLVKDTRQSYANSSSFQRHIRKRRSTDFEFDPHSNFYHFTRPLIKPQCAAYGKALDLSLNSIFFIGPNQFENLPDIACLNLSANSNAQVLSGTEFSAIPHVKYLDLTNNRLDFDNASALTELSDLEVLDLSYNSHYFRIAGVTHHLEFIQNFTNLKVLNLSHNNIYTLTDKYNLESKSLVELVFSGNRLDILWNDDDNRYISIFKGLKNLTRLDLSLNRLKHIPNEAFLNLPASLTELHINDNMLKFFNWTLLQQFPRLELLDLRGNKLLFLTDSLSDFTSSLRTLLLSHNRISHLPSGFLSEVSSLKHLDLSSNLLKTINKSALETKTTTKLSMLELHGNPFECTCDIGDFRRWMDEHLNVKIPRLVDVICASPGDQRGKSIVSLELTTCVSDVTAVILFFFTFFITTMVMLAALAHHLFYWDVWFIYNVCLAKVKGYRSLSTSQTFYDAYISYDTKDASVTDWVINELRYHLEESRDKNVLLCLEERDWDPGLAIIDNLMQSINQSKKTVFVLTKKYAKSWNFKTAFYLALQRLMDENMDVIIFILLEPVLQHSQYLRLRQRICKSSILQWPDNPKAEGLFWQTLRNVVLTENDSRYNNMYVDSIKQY
In another test the target is human TLR7 (Homo sapiens (Human), UniProt Q9NYK1). Kind of test: TLR7 inhibition reporter assay (HEK-Blue SEAP). The format is cell-based.
human TLR7, sequence (Q9NYK1 27-1049): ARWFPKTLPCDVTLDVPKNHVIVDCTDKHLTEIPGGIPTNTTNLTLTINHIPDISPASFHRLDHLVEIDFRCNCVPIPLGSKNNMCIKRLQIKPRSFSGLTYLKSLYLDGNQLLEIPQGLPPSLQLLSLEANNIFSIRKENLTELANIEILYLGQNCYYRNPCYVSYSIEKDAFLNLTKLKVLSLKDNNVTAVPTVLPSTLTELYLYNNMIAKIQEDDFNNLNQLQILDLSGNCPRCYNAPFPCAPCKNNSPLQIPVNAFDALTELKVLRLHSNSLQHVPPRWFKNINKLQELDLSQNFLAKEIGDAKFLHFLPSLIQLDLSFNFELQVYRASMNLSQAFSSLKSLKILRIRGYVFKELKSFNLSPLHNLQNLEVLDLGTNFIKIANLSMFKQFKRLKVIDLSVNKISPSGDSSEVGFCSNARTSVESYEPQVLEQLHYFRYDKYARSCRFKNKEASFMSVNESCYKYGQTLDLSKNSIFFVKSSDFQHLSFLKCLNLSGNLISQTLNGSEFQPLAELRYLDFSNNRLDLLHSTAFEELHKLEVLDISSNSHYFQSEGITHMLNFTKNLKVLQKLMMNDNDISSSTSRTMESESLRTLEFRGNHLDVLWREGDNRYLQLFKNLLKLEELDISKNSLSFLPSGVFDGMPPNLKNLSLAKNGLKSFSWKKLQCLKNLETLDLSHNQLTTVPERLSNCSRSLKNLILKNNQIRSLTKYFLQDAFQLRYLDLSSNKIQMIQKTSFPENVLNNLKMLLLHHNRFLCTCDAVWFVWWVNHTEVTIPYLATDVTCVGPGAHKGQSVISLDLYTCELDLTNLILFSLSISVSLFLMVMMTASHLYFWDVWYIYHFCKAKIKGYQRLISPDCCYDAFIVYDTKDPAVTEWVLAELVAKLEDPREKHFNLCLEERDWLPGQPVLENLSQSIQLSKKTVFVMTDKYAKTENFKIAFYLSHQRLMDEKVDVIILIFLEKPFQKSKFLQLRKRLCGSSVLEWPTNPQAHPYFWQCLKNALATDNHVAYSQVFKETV
The mark [1] stands for this setting: read-out: TLR9 IC50, HEK-Blue cells overexpressing human TLR9, ODN2006 5 nM stimulation, SEAP reporter.
Setting [2] is: read-out: TLR8 IC50, HEK-Blue cells overexpressing human TLR8, R848 15.9 μM stimulation, SEAP reporter.
The mark [3] stands for this setting: HEK-Blue cells overexpressing human TLR7, gardiquimod 7.5 μM stimulation, SEAP reporter.
Where [4] appears, read: read-out: TLR9 IC50, HEK-Blue cells overexpressing human TLR9, SEAP reporter, ODN2006 5 nM.
Where [5] appears, read: read-out: TLR8 IC50, HEK-Blue cells overexpressing human TLR8, SEAP reporter, R848 15.9 μM.
Where [6] appears, read: HEK-Blue cells overexpressing human TLR7, SEAP reporter, gardiquimod 7.5 μM.
[7] abbreviates: read-out: TLR9 IC50, HEK-Blue human TLR9 cells, ODN2006 5 nM.
The mark [8] stands for this setting: read-out: TLR8 IC50, HEK-Blue human TLR8 cells, R848 15.9 μM.
Where [9] appears, read: HEK-Blue human TLR7 cells, gardiquimod 7.5 μM.

Like-named read-outs stand apart in the source and are kept apart here.

Broadly, the IC50 is the point on the concentration scale where inhibition reaches its midpoint. Turning to `COc1cc(-c2[nH]c3ccc(C4CCC(N(C)CC(=O)N(C)C)CC4)nc3c2C(C)C)cn2ncnc12` (stereo not drawn) [Example 211], the IC50 on human TLR9 (setting [1]) stood at 585 nM; at human TLR8 (setting [2]), 6.8 nM; against human TLR7 (setting [3]), 1.1 nM.

In the case of `CC(C)c1c(-c2cc(CO)c3ncnn3c2)[nH]c2ccc(N3CCC(NCC#N)CC3)nc12` [Example 83], the half-inhibitory concentration (IC50) is 5440 nM on human TLR9 (setting [1]), 6.9 nM on human TLR8 (setting [2]) and 3.6 nM against human TLR7 (setting [3]).

In the case of `COCCNC1CCC(c2ccc3[nH]c(-c4cn5ncnc5c(C)c4C)c(C(C)C)c3n2)CC1` (stereo not drawn) [Example 429], the concentration for half-maximal inhibition (IC50) amounted to 7000 nM at human TLR9 (setting [4]), 5.2 nM at human TLR8 (setting [5]) and 3.4 nM against human TLR7 (setting [6]).

With `COc1cc(-c2[nH]c3ccc(N4CCN(CC5CC5)CC4)nc3c2C(C)C)cn2ncnc12` [Example 120], the IC50 amounted to 5490 nM on human TLR9 (setting [1]), 0.6 nM at human TLR8 (setting [2]) and 2.3 nM at human TLR7 (setting [3]).

Take `Cc1c(-c2[nH]c3ccc(C4CCC(N5CC6(CCO6)C5)CC4)nc3c2C(C)C)cn2ncnc2c1C` (stereo not drawn) [Example 1055]: the half-maximal inhibitory concentration (IC50) on human TLR9 (setting [7]) stood at 5470 nM; at human TLR8 (setting [8]) it was 8.3 nM; on human TLR7 (setting [9]), 4.3 nM.

Consider `CNC(=O)CN1CCC(c2ccc3[nH]c(-c4cc(C)c5ncnn5c4)c(C(C)C)c3n2)CC1` [Example 532], for which the IC50 on human TLR9 (setting [4]) worked out at 3590 nM; on human TLR8 (setting [5]), 4.4 nM; on human TLR7 (setting [6]), 0.58 nM.

On to `Cc1c(-c2[nH]c3ccc(C4CCC(NC5CCOCC5)CC4)nc3c2C(C)C)cn2ncnc2c1C` (stereo not drawn) [Example 453], for which the values for the IC50 at human TLR9 (setting [4]), on human TLR8 (setting [5]) and on human TLR7 (setting [6]) were 1440 nM, 3.3 nM and 4 nM, respectively.

On to `COc1cc(-c2[nH]c3ccc(C4CCC(N5CCCC5)CC4)nc3c2C(C)C)cn2ncnc12` (stereo not drawn) [Example 195], for which the IC50 on human TLR9 (setting [1]) came out at 530 nM; on human TLR8 (setting [2]), 4.3 nM; at human TLR7 (setting [3]), 0.8 nM.

As for `Cc1c(-c2[nH]c3ccc(N4C[C@@H](C)N(CC(N)=O)C[C@H]4C)nc3c2C(C)C)cn2ncnc2c1C` [Example 799], the IC50 on human TLR9 (setting [7]) was over 50000 nM; at human TLR8 (setting [8]), 21 nM; against human TLR7 (setting [9]) it was 5 nM.

With `Cc1cc(-c2[nH]c3ccc(C4CCC(NCC(=O)N(C)C)CC4)nc3c2C(C)C)cn2ncnc12` (stereo not drawn) [Example 280], the values for the IC50 on human TLR9 (setting [1]), at human TLR8 (setting [2]) and against human TLR7 (setting [3]) were 1270 nM, 7.2 nM and 1.1 nM, respectively.

Turning to `[2H]C([2H])([2H])N(CCC(=O)N1C[C@H](C)N(c2ccc3[nH]c(-c4cn5ncnc5c(C)c4C)c(C(C)C)c3n2)C[C@H]1C)C([2H])([2H])[2H]` [Example 965], the IC50 at human TLR9 (TLR9 IC50, HEK-Blue human TLR9 cells, ODN2006 5 nM) was 6480 nM; at human TLR8 (TLR8 IC50, HEK-Blue human TLR8 cells, R848 15.9 μM), 1.1 nM; on human TLR7 (setting [9]), 0.39 nM.

For `COc1cc(-c2[nH]c3ccc(C4CCC(N(CC(N)=O)CC(N)=O)C4)nc3c2C(C)C)cn2ncnc12` (stereo not drawn) [Example 720], the half-maximal inhibitory concentration (IC50) came to 20300 nM on human TLR9 (setting [4]), 94 nM at human TLR8 (setting [5]) and 13 nM at human TLR7 (setting [6]).

On to `CCN(C)C1CCC(c2nc3c(C(C)C)c(-c4cc(OC)c5ncnn5c4)[nH]c3cc2C)CC1` (stereo not drawn) [Example 313], for which the values for the IC50 at human TLR9 (setting [1]), at human TLR8 (setting [2]) and against human TLR7 (setting [3]) were 1200 nM, 7 nM and 0.21 nM, respectively.

`Cc1c(-c2[nH]c3ccc(C4CCC(NCC(=O)N(C)C)CC4)nc3c2C(C)C)cn2ncnc2c1C` (stereo not drawn) [Example 352]: the values for the IC50 on human TLR9 (setting [1]), at human TLR8 (setting [2]) and on human TLR7 (setting [3]) were 2320 nM, 9.2 nM and 5.4 nM, respectively.

Turning to `COc1cc(-c2[nH]c3ccc(C4CN(Cc5c[nH]nn5)C4)nc3c2C(C)C)cn2ncnc12` [Example 651], the concentration for half-maximal inhibition (IC50) at human TLR9 (setting [4]) stood at 687 nM; at human TLR8 (setting [5]) it was 24 nM; at human TLR7 (setting [6]), 1.7 nM.

As to `CCN(C)CC(=O)N1C[C@@H](C)N(c2ccc3[nH]c(-c4cn5ncnc5c(C)c4C)c(C(C)C)c3n2)C[C@@H]1C` [Example 937], the IC50 at human TLR9 (setting [7]) amounted to 14200 nM; at human TLR8 (setting [8]), 14 nM; against human TLR7 (setting [9]), 0.52 nM.

`Cc1c(-c2[nH]c3ccc(N4[C@@H]5CC[C@H]4CN(C(=O)CN4CC6(COC6)C4)C5)nc3c2C(C)C)cn2ncnc2c1C` [Example 920]: the concentration for half-maximal inhibition (IC50) on human TLR9 (setting [7]) was 12100 nM; on human TLR8 (setting [8]) it was 5.9 nM; against human TLR7 (setting [9]), 2.6 nM.
